Holding throughout (assay type): cell-based
The test system of data set [1] is HCC1428-LTED cells. Put plainly: FACS analysis of CD44/CD24 expression (breast cancer stem cells) after LNA knock-down of ELEANOR2. The conditions noted are these: LNA transfected with RNAiMAX, analysis after 48 hours. The procedure: ELEANOR2 RNA which is most abundant in ELEANORS was knocked down by LNA, and CD44/CD24 expression was analyzed by FACS (FIG. 5B). The LNA below was transfected using RNAiMAX (Invitrogen), and analysis was performed after 48 hours.
On the technique in general: In flow cytometry, cells or beads pass a laser one at a time.

The test system of the next data set is CD44 mRNA. Put plainly: RT-qPCR of CD44 mRNA after suppression of ELEANOR expression by LNAs. As to conditions: HCC1428-LTED cells, ELEANOR knock-down by LNA. On the procedure: FIG. 5D is a graph showing the results of RT-qPCR analysis of expressions of ESR1 and CD44 when ELEANORS are knocked down by ELEANOR2 LNA and pa-ELEANOR LNA.
Expressions of ESR1, ELEANORS, and CD44 in the HC1428 and HC1428-LTED cells were analyzed by RT-qPCR using the primers below. In the RT-qPCR, total RNA was purified from cultured cells using NucleoSpin RNA/protein kit (MACHEREY-NAGEL) and was reverse-transcribed by ReverTra Ace qPCR RT Master Mix (TOYOBO Co., Ltd.). The RT-qPCR was performed by ABI Prism 7500 (ABI inc.) using SYBR Green.
Subsequently, the ELEANOR expression was suppressed by LNAs of SEQ ID NO: 1 and SEQ ID NO: 41 specific to ELEANORS, and whether the CD44 expression is changed or not was investigated. The expression of CD44 mRNA was decreased by knock-down of these ELEANORS (FIG. 5D).
In general terms: Quantitative PCR measures a nucleic acid by following its amplification.

For data set [2], the system named is HCC1428-LTED cells. The data set is described as follows: FACS analysis of CD44 expression on the cell surface after ELEANOR knock-down. On the procedure:
The maximum value in the analysis is defined as 100.
Whether the CD44 expression is changed also at the protein level was investigated. Comparative analysis of CD44 expression between HCC1428 and HCC1428-LTED cells was performed. The LNA of SEQ ID NO: 1 that suppresses ELEANOR expression and siRNA (Thermo Fisher Scientific) that suppresses CD44 expression were introduced into HCC1428-LTED cells, and the CD44 expression was analyzed by Western blotting (FIG. 5E). […] Furthermore, an ELEANOR was knocked down by introducing the LNA of SEQ ID NO: 1 into HCC1428-LTED cells, and whether the CD44 expression on the cell surface is also changed or not was analyzed by FACS.

Results on 2 substances are retold here after US20250340944A1, “METHOD TO ASSIST IN SCREENING FOR LATE RECURRENCE OF ER+ BREAST CANCER, AND METHOD FOR SCREENING THERAPEUTIC DRUGS” (JAPANESE FOUNDATION FOR CANCER RESEARCH, priority 2022, published 2025).

Consider “ELEANOR2-LNA: LNA that knocks down ELEANOR2 RNA, sequence TTTGGCCACATTGGAA (SEQ ID NO: 1) (LNA-modified antisense, pattern not given here)”, for which, in the data set on HCC1428-LTED cells [1], the “number of breast cancer stem cells (CD44+/CD24-/low)” value is listed as “significantly decreased”. Besides, the “expression of CD44 mRNA” value in the data set with CD44 mRNA was “decreased”. Further, in the data set with HCC1428-LTED cells [2], the “number of CD44+ cells” value is given as “decreased”.
With “pa-ELEANOR-LNA: LNA specific to pa-ELEANOR, sequence GTGCCAGACTCCGATA (SEQ ID NO: 41) (LNA-modified antisense, pattern not given here)”, the “expression of CD44 mRNA” value with CD44 mRNA is “decreased”.
